Tests used:
[1] = tested on: STAT4; assay: Immunoblot of liver lysates: STAT4; assay type: in vivo, mice; conditions: IP
Description: For ConA induced hepatitis experiments spleen and liver lysates were lysed in RIPA buffer containing 50 mM Tris, pH 7.4, 1% NP-40, 150 mM NaCl, 0.1% SDS, 0.5% sodium deoxycholate and protease inhibitors (5 μg/ml, Sigma), with protease and phosphatase (Sigma, Rehovot, Israel).
Lysates were centrifuged twice at 4° C. for 10 minutes in 14000 rpm. Equivalent amounts of lysates (15 μg/lane), determined by Bradford assay (Bio-Rad, Rehovot, Israel), were separated by sodium dodecyl sulfate polyacrylamide gel electrophoresis (SDS-PAGE) and transferred to nitrocellulose membranes.
Blots were developed with horseradish peroxidase-conjugated secondary antibodies (Jackson Laboratories Bar Harbor, Me.) and Western Blot-Luminol Reagent (Santa Cruz Biotechnology, CA, USA). Cell counting and western Blot quantification was performed using total Lab (Phoretix, USA) software.

[2] = tested on: intrahepatic and intrasplenic lymphocytes; assay: FACS analysis of intrahepatic and intrasplenic lymphocytes (NKT, CD4, CD8); assay type: in vivo, mice
Description: (§1) Splenocytes and intrahepatic lymphocytes were isolated as follows: livers and spleens were kept in RPMI-1640+FCS. Then spleens were crushed through a 70 μm nylon cell strainer (Falcon) and centrifuged (1250 rpm for 7 min) for the removal of cell debris. Red blood cells were lysed with 1 ml of cold 155 mM ammonium chloride lysis buffer and centrifuged (1250 rpm for 3 min). Splenocytes were resuspended with 1 ml RPMI+FCS. Cell viability by trypan blue staining was above 90%. For intrahepatic lymphocytes, livers were crushed through a stainless mesh (size 60, Sigma) and the cell suspension was placed in a 50-ml tube for 5 min. Lymphoprep (10 ml, Ficoll, Axis-Shield PoC AS, Oslo, Norway) was placed under similar volume of cell suspension in 50-ml tubes. Tubes were centrifuged at 1800 rpm for 18 min. Cells in the interface were collected and centrifuged at 1800 rpm for 10 min, to obtain a pellet of cells depleted of hepatocytes to a final volume of 250 μl. Approximately 1×10^6 cells/mouse liver, were recovered.
For ConA induced hepatitis experiments, flow cytometry was performed immediately following splenocyte and hepatic lymphocyte isolation using 1×10^6 lymphocytes in 100 μl PBS with 0.1% BSA. To determine the percentage of NKT lymphocytes, FITC anti-mouse CD3 and PE anti-mouse NK1.1 antibodies were used (eBioscience, USA). CD4 and CD8 subsets were detected using FITC anti-mouse CD3 and PE-anti-mouse CD4 or CD8 antibodies. Cells were incubated for 30 min at 4° C. in the dark, washed, and resuspended in 200 μl of PBS with 0.1% BSA. Analytical cell sorting was performed for 1×10^6 cells from each group using a fluorescence-activated cell sorter (FACSTAR plus, Becton Dickinson). Only live cells were counted, and unstained cells served as controls for background fluorescence. Gates were set on the forward and side scatter to exclude dead cells and red blood cells. Data were analyzed using either the Consort 30 two-color contour plot program (Becton Dickinson, Oxnard, Calif.) or the CELLQuest 25 program.
(§2) Assessment of the effect of any of the synthetic analogs on the immune response was next determined by analysis of the cytokine serum level of IFNγ in each animal using a commercial “sandwich” ELISA kit, and by FACS analysis of intrahepatic and intrasplenic (peripheral) lymphocytes levels.

[3] = tested on: IL-10; assay: Serum IL-10 by ELISA in ConA induced hepatitis; assay type: in vivo, mice; conditions: for serum IL-10: intraperitoneal
Description: (§3) Serum levels of IFN-γ, TGF-β, TNF-α IL-2, IL-4, IL-6, IL-10 and IL-12 were determined by “sandwich” ELISA, using commercial kits (Quantikine, R&D Systems, Minneapolis, Minn., USA). Serum insulin was also determined by “sandwich” ELISA too, using the commercial kit of Mercodia AB (Uppsala, Sweden) according to the manufacturer's instructions.

[4] = tested on: IFN-γ; assay: Serum IFN-γ by sandwich ELISA in ConA induced hepatitis; assay type: in vivo, mice
Description: as §3, §2

[5] = tested on: fat-associated T cells; assay: Flow cytometry of T cell subsets in adipose tissue, stromal vascular cells and spleen of ob/ob mice; assay type: in vivo; conditions: 45 μg per os daily 4 weeks, vs vehicle
Description: as §1
Adipose tissue (visceral fat pads) was minced and incubated in Krebs-Ringer bicarbonate buffer (3 mL/g adipose tissue) containing 10mM glucose and 2.5% bovine serum albumin, incubated with 840 U/g collagenase type I (Sigma, Rehovot, Israel)) at 37° C. for 1 hour. Cells were filtered twice through chiffon mesh (100 μm) and centrifuged 50 g for 5 min. Floating adipocytes were separated from pelleted S/V fraction. The infranatant fraction was removed and centrifuged at 200 g for five minutes to pellet the S/V cells.
For metabolic syndrome experiments, the following antibodies were used for flow cytometry: anti-CD4-Pacific Blue, anti-CD8-FITC, anti-IL-17-PE, anti CD25-PercP-Cy5.5 and anti FOX3p PE-Cy725 (all from eBioscience, San Diego, Calif.). Surface staining was performed by incubating cells with antibodies and anti-CD16/32 (blocks Fc, eBioscience) at 4° C. in FACS buffer containing PBS and 0.5% BSA, for 30 min. Cells were washed twice with FACS buffer, resuspended in FACS buffer, and analyzed by flow cytometry. Appropriate isotype controls were used in all experiments. Intracellular staining was performed using Foxp3 staining buffer kit (eBioscience, San Diego, Calif.). Cells were incubated with 1 ml Fixation/Permeabilization solution for 50 min, washed twice with Permeabilization buffer and incubated with anti-Foxp3 Ab for 50 min. Cells were then washed twice with Permeabilization buffer and resuspended with FACS buffer. Analysis was performed using a FACSCalibur instrument (Becton Dickinson, San Jose, Calif.) with FCS express V.3 software (DeNovo software, Los Angeles, Calif.).
Therefore, five groups of male C57BL/6 Ob/Ob mice were studied. Mice (6 per group) were fed (per os) daily for 4 weeks with 15 or 45 μg of GC (groups B and C, respectively) and 15 or 45 μg of ALIB-97 (groups D and E, respectively). Control mice (Group A) were administered vehicle only.

[6] = B6 mice, intraperitoneal, 8 h, p<0.05
[7] = B6 mice, oral administration, p<0.05
[8] = ConA induced hepatitis, C57Bl/6 mice, intraperitoneal, low dosage 1 μg/mice

## CCCCCCCCCCCCCC=CC(O)C(CO[C@@H]1OC(CO)[C@@H](O)C(O)C1O)NC(=S)NC12CC3CC(CC(C3)C1)C2 (stereo in doubt) [ALIB-97, N-adamantyl-N′-glucosylsphingosine thiourea]
[1]; B6 mice
  STAT4 expression in the liver: strikingly decreased
[1]; CD1d−/− mice
  STAT4 expression in the liver: remained unchanged
[2]; B6 mice, intraperitoneal, 8 h, p<0.01
  splenic CD3/NKT cells: significantly reduced
[2]; [6]
  decrease of hepatic CD3/NKT cells: more than 55%
  splenic CD3/CD4 cells: significantly reduced
[2]; B6 mice, intraperitoneal, 20 h
  splenic CD3/CD4 cells: not affected
[2]; B6 mice, intraperitoneal, 20 h, p=0.01
  increase of hepatic CD3/CD4 cells: 33%
[2]; B6 mice, oral administration
  hepatic CD3/CD8 lymphocytes: unaffected
[2]; B6 mice, oral administration, after 8 hours, p<0.05
  decrease in hepatic CD3/NK1.1 lymphocytes: 73%
[2]; [7]
  increase of splenic CD3/NK1.1 lymphocytes: > 100%
  reduction of splenic CD3/CD8 cells: 30%
[2]; B6 mice, oral administration, p=0.07
  reduction of splenic CD3/CD4 cells: 23%
[2]; B6 mice, oral administration, p=0.08
  decrease in hepatic CD3/CD4 lymphocyte ratio: 20%
[2]; [8]
  intrahepatic NKT cell levels: decrease
  intrahepatic/peripheral ratio of NKT cells: decrease
  peripheral/intrahepatic ratio of the CD4/CD8 ratio: increase
[3]; B6 mice
  serum IL-10: increased
[3]; B6 mice, oral administration, after 20 hours
  IL-10 serum levels: Decreased
[3]; CD1d−/− mice
  serum IL-10: increased
[3]; Jα18−/− mice
  serum IL-10: increased
[4]; B6 mice, intraperitoneal
  serum IFN-γ levels: marked decrease
[4]; B6 mice, oral administration, after 20 hours, vs control p<0.01
  serum IFN-γ levels: significant decrease
[4]; CD1d−/− KO mice, intraperitoneal
  serum IFN-γ levels: did not significantly alter
[4]; [8]
  IFNγ serum levels: decrease
[4]; Jα18−/− mice, intraperitoneal
  serum IFN-γ levels: substantial increase
[5]
  CD4+CD25+FOXP3+ cells, ADIPOCYTES: ↑↑ (↓/↑ and ↓↓/↑↑-p≦0.05 and p≦0.01 respectively)
  CD4+CD25+IL17+ cells, SVC: ↑ (↓/↑ and ↓↓/↑↑-p≦0.05 and p≦0.01 respectively)
  CD4+FOXP3+ cells, SPLEEN: ↓ (↓/↑ and ↓↓/↑↑-p≦0.05 and p≦0.01 respectively)
  CD4+FOXP3+IL17+ cells, ADIPOCYTES: ↓ (↓/↑ and ↓↓/↑↑-p≦0.05 and p≦0.01 respectively)
  CD4+IL17+ cells, ADIPOCYTES: ↓ (↓/↑ and ↓↓/↑↑-p≦0.05 and p≦0.01 respectively)
  CD8+CD25+ cells, ADIPOCYTES: ↓ (↓/↑ and ↓↓/↑↑-p≦0.05 and p≦0.01 respectively)
  CD8+CD25+FOXP3+ cells, SPLEEN: ↑↑ (↓/↑ and ↓↓/↑↑-p≦0.05 and p≦0.01 respectively)
  CD8+CD25+FOXP3+ cells, SVC: ↓ (↓/↑ and ↓↓/↑↑-p≦0.05 and p≦0.01 respectively)
  CD8+CD25+FOXP3+IL17+ cells, ADIPOCYTES: ↓ (↓/↑ and ↓↓/↑↑-p≦0.05 and p≦0.01 respectively)
  CD8+CD25+FOXP3+IL17+ cells, SPLEEN: ↑ (↓/↑ and ↓↓/↑↑-p≦0.05 and p≦0.01 respectively)
  CD8+CD25+IL17+ cells, ADIPOCYTES: ↑ (↓/↑ and ↓↓/↑↑-p≦0.05 and p≦0.01 respectively)
  CD8+CD25+IL17+ cells, SVC: ↑ (↓/↑ and ↓↓/↑↑-p≦0.05 and p≦0.01 respectively)
  CD8+FOXP3+ cells, SPLEEN: ↑↑ (↓/↑ and ↓↓/↑↑-p≦0.05 and p≦0.01 respectively)
  CD8+FOXP3+IL17 cells, ADIPOCYTES: ↓↓ (↓/↑ and ↓↓/↑↑-p≦0.05 and p≦0.01 respectively)
  CD8+IL17+ cells, ADIPOCYTES: ↓ (↓/↑ and ↓↓/↑↑-p≦0.05 and p≦0.01 respectively)
  CD25+FOXP3+ cells, SPLEEN: ↓ (↓/↑ and ↓↓/↑↑-p≦0.05 and p≦0.01 respectively)
